Assay results published in patent publication US11180474B2 (BRISTOL-MYERS SQUIBB COMPANY, priority 2016, dated 2021).
pIC50: −log10 of the molar value.

Experiments:
[1] = biological target: T1, human TLR7 (Homo sapiens, UniProt Q9NYK1); test: TLR7 inhibition reporter assay (HEK-Blue cells, SEAP reporter, gardiquimod stimulation); format: cell-based; settings: HEK-Blue cells overexpressing human TLR7, gardiquimod 7.5 μM
T1 construct: host or cells: HEK-Blue cells
T1 sequence (Q9NYK1 27-1049): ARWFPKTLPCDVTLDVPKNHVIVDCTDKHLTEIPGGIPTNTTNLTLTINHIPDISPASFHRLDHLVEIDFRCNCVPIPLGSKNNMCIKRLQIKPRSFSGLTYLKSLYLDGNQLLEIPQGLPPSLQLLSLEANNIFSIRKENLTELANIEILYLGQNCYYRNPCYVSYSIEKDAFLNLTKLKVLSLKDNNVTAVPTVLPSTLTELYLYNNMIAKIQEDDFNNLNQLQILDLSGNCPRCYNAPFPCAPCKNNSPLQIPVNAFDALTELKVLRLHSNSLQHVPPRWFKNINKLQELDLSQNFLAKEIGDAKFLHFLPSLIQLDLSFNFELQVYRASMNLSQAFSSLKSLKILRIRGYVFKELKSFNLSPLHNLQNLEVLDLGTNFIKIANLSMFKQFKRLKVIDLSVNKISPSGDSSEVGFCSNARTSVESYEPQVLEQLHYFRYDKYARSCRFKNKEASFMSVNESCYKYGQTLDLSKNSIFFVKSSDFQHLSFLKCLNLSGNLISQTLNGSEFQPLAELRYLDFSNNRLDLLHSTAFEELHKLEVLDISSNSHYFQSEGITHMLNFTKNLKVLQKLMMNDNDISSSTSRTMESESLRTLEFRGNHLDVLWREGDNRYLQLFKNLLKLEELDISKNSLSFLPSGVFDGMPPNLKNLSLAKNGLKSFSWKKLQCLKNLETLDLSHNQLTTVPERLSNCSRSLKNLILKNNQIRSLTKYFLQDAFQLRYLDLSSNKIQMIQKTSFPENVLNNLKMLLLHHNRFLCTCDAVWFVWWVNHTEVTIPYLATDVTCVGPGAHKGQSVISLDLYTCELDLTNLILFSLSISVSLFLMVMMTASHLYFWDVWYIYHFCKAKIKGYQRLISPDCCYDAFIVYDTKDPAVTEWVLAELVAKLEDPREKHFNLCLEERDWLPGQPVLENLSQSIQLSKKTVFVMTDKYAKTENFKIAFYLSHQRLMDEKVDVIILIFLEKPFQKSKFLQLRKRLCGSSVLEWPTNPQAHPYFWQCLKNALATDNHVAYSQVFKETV
Protocol: (§1) TLR7/8/9 Inhibition Reporter Assays
Briefly, cells are seeded into Greiner 384 well plates (15000 cells per well for TLR7, 20,000 for TLR8 and 25,000 for TLR9) and then treated with test compounds in DMSO to yield a final dose response concentration range of 0.05 nM-50 μM. […] After a 22 hour incubation at 37° C., 5% CO2, SEAP levels are determined with the addition of HEK-Blue™ Detection reagent (Invivogen), a cell culture medium that allows for detection of SEAP, according to manufacturer's specifications. The percent inhibition is determined as the % reduction in the HEK-Blue signal present in wells treated with agonist plus DMSO alone compared to wells treated with a known inhibitor.

[2] = biological target: T2, human TLR9 (Homo sapiens, UniProt Q9NR96); test: TLR9 inhibition reporter assay (HEK-Blue cells, SEAP reporter, ODN2006 stimulation); format: cell-based; settings: HEK-Blue cells overexpressing human TLR9, ODN2006 5 nM
T2 construct: host or cells: HEK-Blue cells
T2 sequence (Q9NR96 26-1032): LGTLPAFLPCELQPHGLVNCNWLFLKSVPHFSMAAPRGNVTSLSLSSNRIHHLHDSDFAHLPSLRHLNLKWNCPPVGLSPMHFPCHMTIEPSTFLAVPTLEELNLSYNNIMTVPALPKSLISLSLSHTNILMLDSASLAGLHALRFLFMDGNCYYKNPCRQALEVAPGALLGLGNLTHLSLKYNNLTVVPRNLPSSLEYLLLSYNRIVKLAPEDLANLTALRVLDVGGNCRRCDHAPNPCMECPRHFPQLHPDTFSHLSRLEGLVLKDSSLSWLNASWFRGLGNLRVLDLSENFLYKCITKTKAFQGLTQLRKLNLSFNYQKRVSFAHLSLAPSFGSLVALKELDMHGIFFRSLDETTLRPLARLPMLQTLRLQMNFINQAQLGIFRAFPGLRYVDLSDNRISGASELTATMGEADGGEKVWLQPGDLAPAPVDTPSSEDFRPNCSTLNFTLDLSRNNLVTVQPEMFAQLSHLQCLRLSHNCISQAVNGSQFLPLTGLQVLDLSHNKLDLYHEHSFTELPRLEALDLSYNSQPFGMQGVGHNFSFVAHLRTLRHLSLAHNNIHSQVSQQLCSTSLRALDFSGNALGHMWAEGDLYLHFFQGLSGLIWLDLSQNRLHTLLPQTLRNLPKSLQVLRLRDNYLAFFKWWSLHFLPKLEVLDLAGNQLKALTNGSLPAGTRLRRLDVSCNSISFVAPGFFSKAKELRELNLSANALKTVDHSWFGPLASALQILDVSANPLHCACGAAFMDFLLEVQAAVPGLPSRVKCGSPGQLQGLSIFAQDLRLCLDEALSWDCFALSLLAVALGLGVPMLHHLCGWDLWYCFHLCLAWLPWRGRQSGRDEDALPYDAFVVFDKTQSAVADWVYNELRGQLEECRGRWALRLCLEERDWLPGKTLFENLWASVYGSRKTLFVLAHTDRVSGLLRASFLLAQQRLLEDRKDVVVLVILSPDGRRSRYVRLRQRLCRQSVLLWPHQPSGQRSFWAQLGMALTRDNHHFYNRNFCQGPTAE
Protocol: as §1
HEK-Blue™-cells (Invivogen) overexpressing human TLR7, TLR8 or TLR9 receptors were used for screening inhibitors of these receptors using an inducible SEAP (secreted embryonic alkaline phosphatase) reporter gene under the control of the IFN-β minimal promoter fused to five NF-κB and AP-1-binding sites. Briefly, cells are seeded into Greiner 384 well plates (15000 cells per well for TLR7, 20,000 for TLR8 and 25,000 for TLR9) and then treated with test compounds in DMSO to yield a final dose response concentration range of 0.05 nM-50 μM. After a 30 minute compound pre-treatment at room temperature, the cells are then stimulated with a TLR7 ligand (gardiquimod at a final concentration of 7.5 μM), TLR8 ligand (R848 at a final concentration of 15.9 μM) or TLR9 ligand (ODN2006 at a final concentration of 5 nM) to activate NF-κB and AP-1 which induce the production of SEAP. After a 22 hour incubation at 37° C., 5% CO2, SEAP levels are determined with the addition of HEK-Blue™ Detection reagent (Invivogen), a cell culture medium that allows for detection of SEAP, according to manufacturer's specifications. The percent inhibition is determined as the % reduction in the HEK-Blue signal present in wells treated with agonist plus DMSO alone compared to wells treated with a known inhibitor.

Structure (SMILES) | pIC50 [1] | pIC50 [2]
COc1ccc(-c2[nH]c3ccc(C4CCN(C(C)CN(C)C)CC4)cc3c2C)cc1OC (centres unmarked) [Example 30, 2-(4-(2-(3,4-dimethoxyphenyl)-3-methyl-1H-indol-5-yl)piperidin-1-yl)-N,N-dimethylpropan-1-amine] | 6.18 | 6.07
COc1ccc(-c2[nH]c3ccc(C4CCN(Cc5ccnc6ccccc56)CC4)cc3c2C)cc1OC [Example 32, 4-((4-(2-(3,4-dimethoxyphenyl)-3-methyl-1H-indol-5-yl)piperidin-1-yl)methyl)quinoline] | 5.61 | 5.45
COc1ccc(-c2[nH]c3ccc(C4CCN(Cc5cc6ccccc6n5C)CC4)cc3c2C)cc1OC [Example 33, 2-(3,4-dimethoxyphenyl)-3-methyl-5-(1-((1-methyl-1H-indol-2-yl)methyl)piperidin-4-yl)-1H-indole] | ≤ 4.30 | 5.43
COc1ccc(-c2[nH]c3ccc(C4CCN(Cc5ccc6ccccc6n5)CC4)cc3c2C)cc1OC [Example 35, 2-((4-(2-(3,4-dimethoxyphenyl)-3-methyl-1H-indol-5-yl)piperidin-1-yl)methyl)quinoline] | 5.57 | 5.84
COc1ccc(-c2[nH]c3ccc(C4CCN(Cc5ccc(N(C)C)cc5)CC4)cc3c2C)cc1OC [Example 37, 4-((4-(2-(3,4-dimethoxyphenyl)-3-methyl-1H-indol-5-yl)piperidin-1-yl)methyl)-N,N-dimethylaniline] | 5.98 | 6.20
COc1ccc(-c2[nH]c3ccc(C4CCN(Cc5cncn5C)CC4)cc3c2C)cc1OC [Example 40, 2-(3,4-dimethoxyphenyl)-3-methyl-5-(1-((1-methyl-1H-imidazol-5-yl)methyl)piperidin-4-yl)-1H-indole] | 6.29 | 5.70
COc1ccc(-c2[nH]c3ccc(C4CCN(Cc5csnn5)CC4)cc3c2C)cc1OC [Example 41, 4-((4-(2-(3,4-dimethoxyphenyl)-3-methyl-1H-indol-5-yl)piperidin-1-yl)methyl)-1,2,3-thiadiazole] | 5.63 | 5.42

The remaining compounds from weak to strong by pIC50 [1], led by results:

pIC50 [1] | pIC50 [2] | Structure (SMILES)
5.70 | 6.60 | COc1ccc(-c2[nH]c3ccc(C4CCN(Cc5ccc(-n6ccnc6)cc5)CC4)cc3c2C)cc1OC [Example 39, 5-(1-(4-(1H-imidazol-1-yl)benzyl)piperidin-4-yl)-2-(3,4-dimethoxyphenyl)-3-methyl-1H-indole]
5.79 | 6.10 | COc1ccc(-c2[nH]c3ccc(C4CCN(Cc5cccn5C)CC4)cc3c2C)cc1OC [Example 29, 2-(3,4-dimethoxyphenyl)-3-methyl-5-(1-((1-methyl-1H-pyrrol-2-yl)methyl)piperidin-4-yl)-1H-indole]
5.94 | 6.46 | COc1ccc(-c2[nH]c3ccc(C4CCN(Cc5cccc6cccnc56)CC4)cc3c2C)cc1OC [Example 36, 8-((4-(2-(3,4-dimethoxyphenyl)-3-methyl-1H-indol-5-yl)piperidin-1-yl)methyl)quinoline]
6.17 | 6.46 | COc1ccc(-c2[nH]c3ccc(C4CCN(Cc5ccc(-n6cncn6)cc5)CC4)cc3c2C)cc1OC [Example 34, 5-(1-(4-(1H-1,2,4-triazol-1-yl)benzyl)piperidin-4-yl)-2-(3,4-dimethoxyphenyl)-3-methyl-1H-indole]
6.18 | 6.68 | COc1ccc(-c2[nH]c3ccc(C4CCN(Cc5ccc(OCCCN(C)C)cc5)CC4)cc3c2C)cc1OC [Example 38, 3-(4-((4-(2-(3,4-dimethoxyphenyl)-3-methyl-1H-indol-5-yl)piperidin-1-yl)methyl)phenoxy)-N,N-dimethylpropan-1-amine]
6.46 | 6.65 | COc1ccc(-c2[nH]c3ccc(C4CCN(Cc5ccc6cnccc6c5)CC4)cc3c2C)cc1OC [Example 31, 6-((4-(2-(3,4-dimethoxyphenyl)-3-methyl-1H-indol-5-yl)piperidin-1-yl)methyl)isoquinoline]
